Results as given in ChEMBL document CHEMBL1156361, “Structure-activity relationship of in vitro antiviral and cytotoxic activity of semisynthetic analogues of scopadulane diterpenes” (J Nat Prod, 2001).
In brackets after ≈: the same amount, converted by molar mass. Activity calls are given as the source filed them. The rule behind the calls is not given here.

Experiments:
CHO = assay: Cytotoxicity against CHO cells after 48 hrs; assay type: cell-based, Cricetulus griseus; details: chinese hamster
Vero = assay: Cytotoxicity against african green monkey Vero cells by end-point titration technique; assay type: cell-based; details: chlorocebus sabaeus
Human alphaherpesvirus 2 [1] = assay: Antiviral activity against Herpes simplex virus 2 infected in african green monkey Vero cells assessed as ratio of the viral titers in absence to presence of drug after 48 hrs by end-point titration technique; assay type: functional
Human alphaherpesvirus 2 [2] = assay: Antiviral activity against Herpes simplex virus 2 infected in african green monkey Vero cells assessed as maximal nontoxic dose that showed the highest viral reduction factor after 48 hrs by end-point titration technique; assay type: functional
[3] = Cytotoxicity against bovine Bon-Fib cells after 48 hrs; assay type: cell-based, Bos taurus; details: cattle
[4] = Cytotoxicity against african green monkey Vero cells by MTT assay; assay type: cell-based; details: chlorocebus sabaeus
[5] = Therapeutic index, ratio of CC50 for african green monkey Vero cells to IC50 for Herpes simplex virus 2 by MTT assay; assay type: cell-based; details: read-out: Ratio CC50/IC50
Human alphaherpesvirus 2 [6] = assay: Antiviral activity against Herpes simplex virus 2 infected in african green monkey Vero cells assessed inhibition of virus-induced effect after 48 hrs by MTT assay; assay type: functional, organism-based; details: Human alphaherpesvirus 2, Vero
HeLa = assay: Cytotoxicity against human HeLa cells after 48 hrs; assay type: functional
HEp-2 = assay: Cytotoxicity against human Hep2 cells after 48 hrs; assay type: functional

Structure (SMILES)	CC100 (CHO) [µg/mL]	CC100 (Vero) [µg/mL]	Ratio (Human alphaherpesvirus 2 [1])	Activity (Human alphaherpesvirus 2 [2])	CC100 [3] [µg/mL]	CC50 [4] [µg/mL]	selectivity ratio [5]	IC50 (Human alphaherpesvirus 2 [6]) [µg/mL]	CC100 (HeLa) [µg/mL]	CC100 (HEp-2) [µg/mL]
CC1(C)CCC[C@@]2(C)[C@H]1C[C@@H](O)C1=CC(=O)[C@]3(C)CC[C@]12C3	20	28	10	14 µg/mL	10	–	–	–	–	–
CC1(C)CCC[C@@]2(C)[C@H]1C[C@H](O)[C@H]1CC(=O)[C@]3(C)CC[C@]12C3	–	48	5	10 µg/mL	–	–	–	–	–	–
CC1(C)CCC[C@@]2(C)[C@H]1C[C@H](O)[C@H]1C[C@@H](O)[C@]3(C)CC[C@]12C3 [THYRSIFLORIN C]	45	30	inactive	inactive	60	–	–	–	–	–
CC(=O)O[C@H]1C[C@H]2C(C)(C)CCC[C@]2(C)[C@@]23CC[C@](C)(C2)[C@@H](O)C[C@H]13	–	50	10	25 µg/mL	–	–	–	–	–	–
CC1(C)CCCC2=C1CC[C@@]13CC[C@](C)(C[C@@]21C)C(=O)C3	–	35	inactive	inactive	–	–	–	–	–	–
CC1(C)CCC[C@@]2(C)[C@H]1CC[C@H]1C[C@@H](O)[C@]3(C)CC[C@]12C3	–	32	100	7.5 µg/mL	–	19.5 (≈ 67.1 µM)	1.25	16.5 (≈ 56.8 µM)	–	–
CC1(C)CCC[C@@]2(C)[C@H]1CC[C@@]13CC(=O)[C@]4(C)CC1[C@]32C4	–	40	10	20 µg/mL	–	–	–	–	–	–
CC1(C)CCC[C@@]2(C)[C@H]1CCC1=CC(=O)[C@@]3(C)C[C@@]12CC3=O	–	60	10	30 µg/mL	–	–	–	–	–	–
CC1(C)CCC[C@@]2(C)[C@H]1C[C@@H](O)[C@@H]1CC(=O)[C@]3(C)CC[C@]12C3	–	60	100	30 µg/mL	–	27.8 (≈ 91.3 µM)	0.66	42.1 (≈ 138 µM)	–	–
Nc1nc2c(ncn2COCCO)c(=O)[nH]1 [ACYCLOVIR]	–	> 600	100000	6 µg/mL	–	–	–	4.21 (≈ 18.7 µM)	–	–
CC1(C)CCC[C@@]2(C)[C@H]1CCC1=CC(=O)[C@]3(C)CC[C@]12C3	–	40	100	20 µg/mL	–	23.2 (≈ 81 µM)	0.72	32.4 (≈ 113 µM)	–	–
COC(=O)CC(=O)O[C@@H]1C[C@@H]2[C@@H](OC(C)=O)C[C@H]3C(C)(C)CCC[C@]3(C)[C@]23CC[C@]1(C)C3 [METHYL THYRSIFLORIN B ACETATE]	30	30	5	15 µg/mL	60	–	–	–	30	30
COC(=O)CC(=O)O[C@@H]1C[C@@H]2CC[C@H]3C(C)(C)CCC[C@]3(C)[C@]23CC[C@]1(C)C3 [METHYL THYRSIFLORIN A]	28	30	5	15 µg/mL	28	–	–	–	–	–
CC1(C)CCC[C@@]2(C)[C@H]1CC[C@H]1CC(=O)[C@]3(C)CC[C@]12C3	24	28	100	14 µg/mL	24	16.7 (≈ 57.9 µM)	0.81	21 (≈ 72.9 µM)	–	–
CC(=O)O[C@H]1C[C@H]2C(C)(C)CCC[C@]2(C)[C@@]23CC[C@](C)(C2)[C@H](OC(C)=O)C[C@H]13 [THYRSIFLORIN C DIACETATE]	40	50	5	10 µg/mL	60	–	–	–	–	–
